# From patent publication US4748274A, “4-hydroxy-4-(substituted alkenyl)cyclohexanecarboxylic acids” (Merrell Dow Pharmaceuticals Inc., priority 1986, dated 1988)
# How the values were obtained:
# [1] = molecular target: T1, leukotriene D4 (longitudinal muscle of guinea pig ileum) (Cavia porcellus, UniProt Q2NNR5); experiment: Antagonism of leukotriene D4 contraction, longitudinal muscle of guinea pig ileum; type: cell-based; conditions: LTD4 concentration-response, 15 min preincubation, 1 μM indomethacin, 37° C., Arunlakshana and Schild method; for Kb: read-out: G.P. ILEUM pA2 (LTD4) (converted)
# T1 construct: The longitudinal muscle was then carefully dissected from the circular muscle of the ileum; from tissue; host or cells: guinea pig terminal ileum, longitudinal muscle segments
# T1 sequence (Q2NNR5 1-340): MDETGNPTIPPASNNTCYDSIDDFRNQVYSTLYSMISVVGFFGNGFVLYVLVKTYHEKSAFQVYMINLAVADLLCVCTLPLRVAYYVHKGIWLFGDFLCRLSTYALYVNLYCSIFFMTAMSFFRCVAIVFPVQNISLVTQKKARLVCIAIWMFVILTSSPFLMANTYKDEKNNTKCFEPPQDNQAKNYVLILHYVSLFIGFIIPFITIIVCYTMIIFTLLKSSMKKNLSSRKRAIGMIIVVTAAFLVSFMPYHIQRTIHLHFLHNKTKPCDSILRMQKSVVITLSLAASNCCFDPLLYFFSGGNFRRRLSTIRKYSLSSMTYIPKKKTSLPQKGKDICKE
# Procedure: Longitudinal Muscle of Guinea Pig Ileum
# Male, Hartley-Duncan, guinea pigs were sacrificed by cervical dislocation. The terminal portion of the ileum was removed, rinsed, and placed in Burn's modified Tyrode's solution. The longitudinal muscle was then carefully dissected from the circular muscle of the ileum. The longitudinal muscle was cut into 1-2 cm. segments which were placed in a tissue bath containing oxygenated Burn's modified Tyrode's solution warmed to 37° C. A tension of 1.0 gram was then placed on each segment of muscle. After equilibration for 1 hour, 1 μM Indomethacin was added to each bath. After 5 minutes, each tissue segment was then exposed to a concentration of 60 nM leukotriene D4. This response was then considered to be the initial maximal contraction that each segment will produce. After washing the tissue several times, over a 1 hour period, 1 μM lndomethacin was again added to each bath. After a 5 minute period the test agent or vehicle was added to the bath. After 15 minutes, a concentration-response curve was generated using cumulatively increasing concentrations of leukotriene D4. The concentration-response was then compared to the initial maximum contraction. A test compound was considered active, if at concentrations up to 100 μM, it produces a significant shift to the right of the concentration-response relationship to leukotriene D4. The antagonist activity was quantitated in terms of a pA2 value calculated according to the method described by Arunlakshana and Schild, (Brit. J. Pharmac. Chemotherap. 14; 48, 1959).
# [2] = molecular target: T2, 3H-LTD4 specific receptor (guinea pig lung membranes) (Cavia porcellus, UniProt Q2NNR5); experiment: 3H-LTD4 specific receptor binding in guinea pig lung membranes; conditions: 3H-LTD4, 50 mM Tris-HCl pH 7.6, 37° C., 20-40 min; read-out: G.P. LUNG SPECIFIC BINDING IC50
# T2 construct: from tissue; host or cells: guinea pig lung membranes
# T2 sequence (Q2NNR5 1-340): T1 sequence (Q2NNR5 1-340)
# Procedure: 3H-LTD4 - Specific Receptor Binding in Guinea Pig Lung Membranes
# Male guinea pigs were sacrificed and the lungs were removed and placed in ice cold 50 mM Tris-HCl buffer, pH 7.4. The lungs were then homogenized with a Polytron homogenizer and the homogenate was centrifuged at 1000 g for 10 minutes at 4° C. The supernatant was then centrifuged at 30,000 g for 15 minutes at 4° C. to obtain the membrane pellet. This pellet was resuspended in 50 mM Tris-HCl to provide the working suspension of lung membranes. Binding assays were then carried out in 50 mM Tris-HCl at pH 7.6 and 37° C. using incubation periods of 20-40 min. Separation of bound ^3 H-LTD4 from free ^3 H-LTD4 were performed by rapid vacuum filtration through Whatman GF/B glass fiber filters using ice cold Tris-HCl buffer and three 4 ml washes. Filtration and washing were completed in less than 8 seconds. The radioactivity on the filters was then measured. Specific binding of ^3 H-LTD4 was defined as the binding of ^3 H-LTD4 in the absence of unlabelled LTD4 minus the binding of ^3 H-LTD4 in the presence of 2×10^-7 M unlabelled LTD4. Specific binding of ^3 H-LTD4 was 60-80% of total binding. […] In these tests increasing concentrations of the agent are used to block the ^3 H-LTD4 specific binding. The concentration that reduces the specific binding of ^3 H-LTD4 by 50% is termed the IC50.
# [3] = test system: leukotriene D4 (induced bronchoconstriction); experiment: In vivo leukotriene D4 antagonist activity in anesthetized guinea pigs, modified Konzett-Rossler preparation; parameters: species or system guinea pig; conditions: LTD4 50 or 100 ng/kg i.v.
# Procedure: In Vivo Biological Activity
# Compounds of the present invention were also tested for in vivo leukotriene D4 antagonist activity in anesthetized guinea pigs using a modified Konzett-Rossler preparation. Specifically, the guinea pigs were anesthetized with sodium pentobarbital and surgically prepared for artificial ventilation by a constant volume respirator. The inflation pressure produced by the respirator was measured for each inflation of the guinea pigs' lungs. Increases in inflation pressure above baseline are indicative of bronchoconstriction. After establishing a baseline inflation pressure, bronchoconstriction was induced by an intravenous challenge with 50 or 100 ng/kg leukotriene D4. This response was considered the initial response. After the inflation pressure returned to baseline, the guinea pig was treated with the desired dosage of test compound or vehicle, given intravenously (i.v.) or intraduodenally (i.d.), and rechallenged with leukotriene D at one minute [following i.v. administration]or 5 and 20 minutes [following i.d. administration]. This response was then compared to the initial response and the % inhibition of the response was determined. The results can be summarized as follows, with the inhibition values given for administration by the i.d. route being the greater of the two results obtained.
# [4] = 1.0 mg/kg i.d., greater of results at 5 and 20 minutes
compound,measurement,setting,value
"CCCCCCCCCCCCCC=CC(SCCC(=O)O)C1(O)CCC(C(=O)O)CC1 (stereo not drawn) [Example 11, [1α,4β,4(E)]-4-[1-[(2-carboxyethyl)thio-2hexadecenyl]-4-hydroxycyclohexanecarboxylic acid]",G.P. ILEUM pA2 (LTD4),[1],7.87
"CCCCCCCCCCCCC/C=C\C(SCCCC(=O)O)[C@]1(O)CC[C@H](C(=O)O)CC1 (relative stereo) [Example 10J, [1α,4β,4(Z)]-4-[1-[(3-carboxypropyl)thio]-2-hexadecenyl]-4-hydroxycyclohexanecarboxylic acid]",Kb,[1],5.5 nM
same,IC50,[2],7.1 µM
same,PERCENT INHIBITION,"[3]; 0.5 mg/kg i.d., greater of results at 5 and 20 minutes",48%
same,PERCENT INHIBITION,[3]; [4],53%
"CCCCCCCCCCCCC/C=C\C(SCCC(=O)O)[C@]1(O)CC[C@H](C(=O)O)CC1 (relative stereo) [Example 10H, [1α,4β,4(Z)]-4-[1-[(2-CarbOxyethyl)thio]-2-hexadecenyl]-4-hydroxycyclohexanecarboxylic acid]",Kb,[1],0.245 nM
same,IC50,[2],8.7 µM
"CCCCCCCCCCCCC/C=C\C(SCCC(=O)NCC(=O)O)[C@]1(O)CC[C@H](C(=O)O)CC1 (relative stereo) [Example 10L, [1α,4β,4(Z)]-4-[1-[[3-[(carboxymethyl)amino]-3oxopropyl]thio]-2-hexadecenyl]-4-hydroxycyclohexanecarboxylic acid]",Kb,[1],2.69 nM
same,IC50,[2],8 µM
same,PERCENT INHIBITION,"[3]; 0.5 mg/kg i.v., rechallenge at one minute",74%
same,PERCENT INHIBITION,[3]; [4],25%
CCCCCCCCCCCCC/C=C\[C@@H](SCCC(=O)O)[C@]1(O)CC[C@H](C(=O)O)CC1 [Example 10F],Kb,[1],0.38 nM
same,PERCENT INHIBITION,"[3]; 0.0002 mg/kg i.v., rechallenge at one minute",38%
same,PERCENT INHIBITION,"[3]; 0.002 mg/kg i.v., rechallenge at one minute",52%
same,PERCENT INHIBITION,"[3]; 0.02 mg/kg i.v., rechallenge at one minute",94%
same,PERCENT INHIBITION,"[3]; 0.1 mg/kg i.d., greater of results at 5 and 20 minutes",74%
same,PERCENT INHIBITION,"[3]; 0.2 mg/kg i.d., greater of results at 5 and 20 minutes",93%
"CCCCCCCCCCCCC/C=C\C(SCCCC(=O)O)[C@]1(O)CC[C@@H](C(=O)O)CC1 (relative stereo) [Example 10I, [1α,4α,4(Z)]-4-[1-[(3-carboxypropyl)thio]-2-hexadecenyl]-4-hydroxycyclohexanecarboxylic acid]",PERCENT INHIBITION,"[3]; 0.05 mg/kg i.v., rechallenge at one minute",19%
"CCCCCCCCCCCCC/C=C\[C@@H](SCC(=O)O)[C@]1(O)CC[C@H](C(=O)O)CC1 [Example 10D, [4(R)-[1α,4β,4(Z)]]-4-[1-[(carboxymethyl)thio]-2-hexadecenyl]-4-hydroxycyclohexanecarboxylic acid]",Kb,[1],0.158 nM
